Assay results published in patent US10071129B2, “Method for identifying bromodomain inhibitors” (WHITEHEAD INSTITUTE FOR BIOMEDICAL RESEARCH DANA-FARBER …, priority 2011, dated 2018).

What was measured:
[1] = tested on: multiple myeloma cells; experiment: Antiproliferative effect of JQ1 treatment in multiple myeloma cells; format: cell-based; details: multiple myeloma cells treated with JQ1
Description: (§1) To test BET bromodomain inhibitors as a strategy to downregulate the cMyc transcriptional network and the mechanism of downregulation, multiple myeloma cells were treated with JQ1.

[2] = tested on: cMyc; experiment: cMyc protein levels after JQ1 treatment of multiple myeloma cells; format: cell-based; details: multiple myeloma cells treated with JQ1
Description: as §1

[3] = tested on: cMyc target genes; experiment: Genome-wide expression of cMyc target genes and MYC transcription after JQ1 treatment; format: cell-based
Description: as §1

[4] = target: BRD4 (Homo sapiens, UniProt O60885); details: MM.1S cells, 500 nM, 24 hours
Description: Approximately 1×10^8 MM1S cells were treated with 500 nM JQ1 or DMSO for 24 hours and crosslinked with 1.1% formaldehyde (10× crosslink solution contains 11% formaldehyde, 50 mM Hepes pH7.3, 100 mM NaCl, 1 mM EDTA p118.0, 0.5 mM EGTA pH8.0) to the growth media followed by two washes with PBS. Cells were scraped and frozen in liquid nitrogen. Brd4 ChIP-PCR analysis was done on these cells following the protocol in Rahl et al. Cell 2010. In brief, 75 ul of Dynal magnetic beads (Sigma) were blocked with 0.5% BSA (w/v) in PBS. Magnetic beads were bound with 6.25 ug of Brd4 antibody (Bethyl Labs, A310-985A, lot A301-985A-1, FIG. 1A or Sigma, HPA015055-100, lot A31530, FIG. 1B). […]
Brd4 ChIP and input DNA were analyzed using SYBR Green real-time PCR analysis (Applied Biosystems). […] Fold enrichment was determined from triplicate PCR reactions at five potential enhancer regions adjacent to the MYC gene in non-translocated cells (MYC_E1, MYC_E2, MYC_E3, MYC_E4, MYC_E5), the MYC transcriptional start site (MYC_TS1, MYC_TS2), IGH enhancer regions (IGH_E1, IGH_E2, IGH_E3, IGH_E4), and two negative regions upstream of the MYC enhancers (MYC_NR2, MYC_NR3) over input DNA using DDCt over the negative region MYC_NR1.

**Q.** How did the antiproliferative effect [1] turn out when `Cc1sc2c(c1C)C(c1ccc(Cl)cc1)=N[C@@H](CC(=O)OC(C)(C)C)c1nnc(C)n1-2` [JQ1, [(S)-4-(4-Chloro-phenyl)-2,3,9-trimethyl-6H-1-thia-5,7,8,9a-tetraaza-cyclopenta[e]azulen-6-yl]-acetic acid tert-butyl ester] was run?
**A.** potent antiproliferative effect

**Q.** What about the cMyc protein levels [2] of the same molecule?
**A.** rapid downregulation of cMyc protein levels

**Q.** What about the MYC transcription ([3]; multiple myeloma cells treated with JQ1) of the same molecule?
**A.** early and sustained JQ1-induced suppression of MYC transcription

**Q.** And the “expression of cMyc target genes” value ([3]; multiple myeloma cells treated with JQ1, genome-wide)?
**A.** genome-wide downregulation of cMyc target genes

**Q.** And the “BRD4 binding to IgH enhancers and the TSS (ChIP)” value [4]?
**A.** significantly depleted BRD4 binding to IgH enhancers and the TSS
